Assay results published in patent US4485110A, “β-Lactam compounds, and use” (priority 1980, dated 1984).
Like-named read-outs stand apart in the source and are kept apart here.

Experiments:
Experiment in all cases: β-Lactamase inhibitory activity: antibiotic MIC alone or in combination
Format in all cases: cell-based
[1] = system: E. cloacae N1; conditions: for MIC: Enterobacter cloacae
[2] = system: K. aerogenes A; conditions: Klebsiella aerogenes
From the text: (§1) These tables show the MIC values of amoxycillin, cephaloridine, ticarcillin and apalcillin against a number of β-lactamase producing organisms.

[3] = system: E. coli 0111
From the text: as §1

[4] = system: P. mirabilis 977
From the text: as §1

[5] = system: C. freundii E8; conditions: for MIC: Citrobacter freundii
From the text: as §1

[6] = system: P. morganii 1580
From the text: as §1

[7] = system: P. vulgaris WO91; conditions: for MIC: Proteus vulgaris
From the text: as §1

[8] = system: E. coli JT20R+; conditions: Escherichia coli
From the text: as §1

[9] = system: K. aerogenes I112; conditions: for MIC: Klebsiella aerogenes
From the text: as §1

[10] = system: K. aerogenes Ba95R+; conditions: Klebsiella aerogenes
From the text: as §1

[11] = system: S. aureus MB9; conditions: Staphylococcus aureus
From the text: as §1

[12] = system: S. aureus Russell; conditions: Staphylococcus aureus
From the text: as §1

[13] = system: P. rettgeri WM16; conditions: for MIC: Providencia rettgeri
From the text: as §1

[14] = system: P. aeruginosa Dalgleish; conditions: Pseudomonas aeruginosa
From the text: as §1

[15] = system: S. marcescens US20; conditions: for MIC: Serratia marcescens
From the text: as §1

[16] = system: P. mirabilis 889
From the text: as §1

[17] = system: E. coli JT410 C+; conditions: for MIC: Escherichia coli
From the text: as §1

[18] = system: C. freundii B10R+; conditions: Citrobacter freundii
From the text: as §1

[19] = system: P. aeruginosa A; conditions: Pseudomonas aeruginosa
From the text: as §1

[20] = system: E. coli JT39R+; conditions: for MIC: Escherichia coli
From the text: as §1

[21] = apalcillin alone, read-out: Apalcillin MIC
[22] = cephaloridine alone, read-out: Cephaloridine MIC
[23] = ticarcillin alone, read-out: Ticarcillin MIC

## CC1(C)S[C@@H]2[C@H](NC(=O)[C@H](NC(=O)c3cnc4cccnc4c3O)c3ccccc3)C(=O)N2[C@H]1C(=O)O [Apalcillin]
[1]; N1, apalcillin alone, read-out: Apalcillin MIC
  MIC: 5 µg/mL
[2]; [21]
  MIC: 10 µg/mL
[3]; Escherichia coli, 0111, apalcillin alone, read-out: Apalcillin MIC
  MIC: 2.5 µg/mL
[4]; Proteus mirabilis, 977, apalcillin alone, read-out: Apalcillin MIC
  MIC: 2.5 µg/mL
[5]; E8, apalcillin alone, read-out: Apalcillin MIC
  MIC: 2.5 µg/mL
[6]; Morganella morganii, 1580, apalcillin alone, read-out: Apalcillin MIC
  MIC: 1000 µg/mL
[7]; WO91, apalcillin alone, read-out: Apalcillin MIC
  MIC: 10 µg/mL
[8]; read-out: Apalcillin MIC
  MIC: > 1000 µg/mL
[9]; I112, read-out: Apalcillin MIC, apalcillin alone
  MIC: 25 µg/mL
[10]; read-out: Apalcillin MIC
  MIC: > 1000 µg/mL
[11]; MB9, apalcillin alone, read-out: Apalcillin MIC
  MIC: 50 µg/mL
[12]; [21]
  MIC: 250 µg/mL
[13]; WM16, apalcillin alone, read-out: Apalcillin MIC
  MIC: 10 µg/mL
[14]; [21]
  MIC: > 1000 µg/mL
[15]; US20, apalcillin alone, read-out: Apalcillin MIC
  MIC: 5 µg/mL
[16]; Proteus mirabilis, 889, apalcillin alone, read-out: Apalcillin MIC
  MIC: > 1000 µg/mL
[17]; [21]
  MIC: 25 µg/mL
[18]; read-out: Apalcillin MIC
  MIC: > 1000 µg/mL
[19]; [21]
  MIC: 2.5 µg/mL
[20]; read-out: Apalcillin MIC, apalcillin alone
  MIC: 1000 µg/mL

## O=C(Cc1cccs1)N[C@@H]1C(=O)N2C(C(=O)[O-])=C(C[n+]3ccccc3)CS[C@H]12 [Cephaloridine]
[1]; N1, cephaloridine alone, read-out: Cephaloridine MIC
  MIC: 500 µg/mL
[1]; cephaloridine alone
  Cephaloridine MIC: 1000 µg/mL
[2]; [22]
  MIC: 2.5 µg/mL
[3]; Escherichia coli, 0111, cephaloridine alone, read-out: Cephaloridine MIC
  MIC: 2.5 µg/mL
[3]; cephaloridine alone
  Cephaloridine MIC: 5.0 µg/mL
[4]; Proteus mirabilis, 977, cephaloridine alone, read-out: Cephaloridine MIC
  MIC: 10 µg/mL
[4]; cephaloridine alone
  Cephaloridine MIC: 5.0 µg/mL
[5]; E8, cephaloridine alone, read-out: Cephaloridine MIC
  MIC: 500 µg/mL
[6]; Morganella morganii, 1580, cephaloridine alone, read-out: Cephaloridine MIC
  MIC: 1000 µg/mL
[6]; cephaloridine alone
  Cephaloridine MIC: > 1000 µg/mL
[7]; WO91, cephaloridine alone, read-out: Cephaloridine MIC
  MIC: 1000 µg/mL
[7]; cephaloridine alone
  Cephaloridine MIC: > 1000 µg/mL
[8]; read-out: Cephaloridine MIC
  MIC: 25 µg/mL
[9]; I112, read-out: Cephaloridine MIC, cephaloridine alone
  MIC: 5 µg/mL
[10]; read-out: Cephaloridine MIC
  MIC: 100 µg/mL
[11]; MB9, cephaloridine alone, read-out: Cephaloridine MIC
  MIC: < 0.2 µg/mL
[13]; WM16, cephaloridine alone, read-out: Cephaloridine MIC
  MIC: 1000 µg/mL
[13]; cephaloridine alone
  Cephaloridine MIC: > 1000 µg/mL
[14]; [22]
  MIC: > 1000 µg/mL
[15]; US20, cephaloridine alone, read-out: Cephaloridine MIC
  MIC: 1000 µg/mL
[15]; cephaloridine alone
  Cephaloridine MIC: > 1000 µg/mL
[17]; [22]
  MIC: 50 µg/mL
[17]; cephaloridine alone
  Cephaloridine MIC: 100 µg/mL
[18]; read-out: Cephaloridine MIC
  MIC: > 1000 µg/mL
[19]; [22]
  MIC: > 1000 µg/mL
[20]; read-out: Cephaloridine MIC, cephaloridine alone
  MIC: 5 µg/mL
[20]; cephaloridine alone
  Cephaloridine MIC: 10 µg/mL

## CC1(C)S[C@@H]2[C@H](NC(=O)[C@H](C(=O)O)c3ccsc3)C(=O)N2[C@H]1C(=O)O [Ticarcillin]
[1]; N1, ticarcillin alone, read-out: Ticarcillin MIC
  MIC: 2.5 µg/mL
[2]; [23]
  MIC: 100 µg/mL
[3]; Escherichia coli, 0111, ticarcillin alone, read-out: Ticarcillin MIC
  MIC: 5 µg/mL
[4]; Proteus mirabilis, 977, ticarcillin alone, read-out: Ticarcillin MIC
  MIC: 1 µg/mL
[5]; E8, ticarcillin alone, read-out: Ticarcillin MIC
  MIC: 2.5 µg/mL
[5]; ticarcillin alone
  Ticarcillin MIC: 5.0 µg/mL
[8]; read-out: Ticarcillin MIC
  MIC: > 1000 µg/mL
[9]; I112, read-out: Ticarcillin MIC, ticarcillin alone
  MIC: 500 µg/mL
[9]; ticarcillin alone
  Ticarcillin MIC: 250 µg/mL
[10]; read-out: Ticarcillin MIC
  MIC: > 1000 µg/mL
[11]; MB9, ticarcillin alone, read-out: Ticarcillin MIC
  MIC: 10 µg/mL
[12]; [23]
  MIC: 25 µg/mL
[14]; [23]
  MIC: > 1000 µg/mL
[15]; US20, ticarcillin alone, read-out: Ticarcillin MIC
  MIC: 5 µg/mL
[16]; Proteus mirabilis, 889, ticarcillin alone, read-out: Ticarcillin MIC
  MIC: > 1000 µg/mL
[18]; read-out: Ticarcillin MIC
  MIC: > 1000 µg/mL
[19]; [23]
  MIC: 25 µg/mL
[20]; read-out: Ticarcillin MIC, ticarcillin alone
  MIC: > 1000 µg/mL
